Laboratory results reported in US20260365670A1, “EGFR INHIBITORS AND USES THEREOF” (DIZAL (JIANGSU) PHARMACEUTICAL CO., LTD., priority 2022, published 2026).
pIC50: −log10 of the molar value. Where two headings read alike, the source gives them in different places.

Key:
[1] = molecular target: T1, EGFR[T790M/C797S/d746-750] (Homo sapiens, UniProt P00533, C797S/DEL746-750/T790M); test: Inhibition of EGFR[T790M/C797S/d746-750] biochemical enzymatic activity (HTRF); details: for pIC50: EGFR[T790M/C797S/d746-750], 1 mM ATP, 1 h at room temperature, read-out: IC50 @T790M - C797S - Del19
T1 construct: purchased Carna Bio
T1 sequence (P00533 with tags, fused parts or gaps DEL746-750/T790M/C797S limits assumed): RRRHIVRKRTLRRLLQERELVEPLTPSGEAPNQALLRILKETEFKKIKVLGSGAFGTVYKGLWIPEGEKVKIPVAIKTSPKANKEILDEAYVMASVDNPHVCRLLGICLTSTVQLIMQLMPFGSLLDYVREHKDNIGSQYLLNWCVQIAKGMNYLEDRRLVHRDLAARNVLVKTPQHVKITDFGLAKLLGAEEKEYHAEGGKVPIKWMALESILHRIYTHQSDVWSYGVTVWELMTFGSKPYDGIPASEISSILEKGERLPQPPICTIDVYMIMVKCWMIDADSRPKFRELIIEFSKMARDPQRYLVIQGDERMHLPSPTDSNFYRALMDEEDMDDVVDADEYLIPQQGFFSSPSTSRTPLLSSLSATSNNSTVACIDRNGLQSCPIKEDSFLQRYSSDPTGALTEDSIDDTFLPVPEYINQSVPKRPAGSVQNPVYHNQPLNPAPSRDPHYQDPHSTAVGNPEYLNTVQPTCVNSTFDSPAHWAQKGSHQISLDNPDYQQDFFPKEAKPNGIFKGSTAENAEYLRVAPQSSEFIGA
Procedure, shortened: (§1)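 Recombinant kinases phosphorylated 1 μM biotinylated TK substrate with 1 mM ATP in buffer with 5 mM MgCl2, 1 mM MnCl2, 0.01% CHAPS, 1 mM DTT, 0.5% DMSO. Reaction ran 1 h at room temperature, stopped with EDTA-containing detection mix. HTRF 665/615 nm ratio gave IC50 via four-parameter logistic fit.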

EGFR Exon19Del/T790M = molecular target: T2, EGFR Exon19Del/T790M (Homo sapiens, UniProt P00533, DEL746-750/T790M); test: Inhibition of EGFR Exon19Del/T790M biochemical enzymatic activity (HTRF); details: 1 mM ATP; for pIC50: EGFR Exon19Del/T790M, 1 h at room temperature, read-out: IC50 @Del19-T790M
T2 construct: purchased Carna Bio
Procedure, shortened: as §1

PC-9 = test: Cell proliferation assay, PC-9 cells (CellTiter-Glo, 72 hours); type: cell-based; details: PC9 cells, read-out: GI50 PC9
Procedure, shortened: (§2)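 Ba/F3 cells (5000/well) and PC-9 cells (500/well, RPMI1640 with 10% FBS) were plated overnight and then dosed with a compound concentration series. Viable cells were read at day 0 (G0) and after treatment (G3). GI50 came from curve fits of G0-corrected proliferation relative to DMSO.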

[2] = system: Ba/F3 cells expressing EGFR mutations; test: Cell proliferation assay, Ba/F3 cells expressing EGFR mutations (CellTiter-Glo, 72 hours); type: cell-based
Procedure, shortened: as §2

EGFR[T790M/C797S/L858R] = molecular target: T3, EGFR[T790M/C797S/L858R] (Homo sapiens, UniProt P00533, C797S/L858R/T790M); test: Inhibition of EGFR[T790M/C797S/L858R] biochemical enzymatic activity (HTRF); details: 1 mM ATP; for pIC50: EGFR[T790M/C797S/L858R], 1 h at room temperature, read-out: IC50 @T790M- C797S - L858R
T3 construct: purchased Carna Bio
T3 sequence (P00533 25-1210 T790M/C797S/L858R): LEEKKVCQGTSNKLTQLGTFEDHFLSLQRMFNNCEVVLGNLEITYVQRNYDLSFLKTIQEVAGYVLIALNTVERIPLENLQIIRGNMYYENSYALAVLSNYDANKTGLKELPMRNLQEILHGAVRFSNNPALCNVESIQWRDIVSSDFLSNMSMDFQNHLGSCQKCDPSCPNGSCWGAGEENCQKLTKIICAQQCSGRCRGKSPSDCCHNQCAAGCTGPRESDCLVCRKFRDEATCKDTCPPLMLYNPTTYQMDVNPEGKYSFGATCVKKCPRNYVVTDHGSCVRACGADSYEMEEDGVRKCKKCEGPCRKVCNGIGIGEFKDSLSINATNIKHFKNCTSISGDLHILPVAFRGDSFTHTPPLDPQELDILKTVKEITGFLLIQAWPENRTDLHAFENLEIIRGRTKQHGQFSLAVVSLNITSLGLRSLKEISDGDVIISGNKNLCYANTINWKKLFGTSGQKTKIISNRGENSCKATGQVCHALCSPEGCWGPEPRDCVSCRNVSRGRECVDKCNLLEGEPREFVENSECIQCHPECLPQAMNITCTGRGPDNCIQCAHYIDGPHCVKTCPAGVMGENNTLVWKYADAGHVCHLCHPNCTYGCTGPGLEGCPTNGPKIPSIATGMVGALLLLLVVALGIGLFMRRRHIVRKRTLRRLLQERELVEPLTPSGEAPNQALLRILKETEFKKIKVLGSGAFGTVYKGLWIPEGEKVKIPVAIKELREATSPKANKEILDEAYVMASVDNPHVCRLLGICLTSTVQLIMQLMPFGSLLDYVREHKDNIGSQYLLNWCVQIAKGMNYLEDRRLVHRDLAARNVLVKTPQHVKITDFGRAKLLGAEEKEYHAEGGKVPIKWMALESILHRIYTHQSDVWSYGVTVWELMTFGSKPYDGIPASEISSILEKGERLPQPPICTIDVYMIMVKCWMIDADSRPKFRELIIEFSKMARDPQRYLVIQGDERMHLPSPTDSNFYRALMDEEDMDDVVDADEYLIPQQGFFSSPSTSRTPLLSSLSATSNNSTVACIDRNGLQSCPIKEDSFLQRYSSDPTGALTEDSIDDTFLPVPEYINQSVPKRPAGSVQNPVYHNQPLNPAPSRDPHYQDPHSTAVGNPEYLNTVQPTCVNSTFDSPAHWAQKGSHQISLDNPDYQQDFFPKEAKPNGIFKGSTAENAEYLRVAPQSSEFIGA
Procedure, shortened: as §1

EGFR Exon19Del = molecular target: T4, EGFR Exon19Del (Homo sapiens, UniProt P00533, DEL746-750); test: Inhibition of EGFR Exon19Del biochemical enzymatic activity (HTRF); details: read-out: IC50 @Del19
T4 construct: purchased Carna Bio
T4 sequence (P00533 with tags, fused parts or gaps DEL746-750 limits assumed): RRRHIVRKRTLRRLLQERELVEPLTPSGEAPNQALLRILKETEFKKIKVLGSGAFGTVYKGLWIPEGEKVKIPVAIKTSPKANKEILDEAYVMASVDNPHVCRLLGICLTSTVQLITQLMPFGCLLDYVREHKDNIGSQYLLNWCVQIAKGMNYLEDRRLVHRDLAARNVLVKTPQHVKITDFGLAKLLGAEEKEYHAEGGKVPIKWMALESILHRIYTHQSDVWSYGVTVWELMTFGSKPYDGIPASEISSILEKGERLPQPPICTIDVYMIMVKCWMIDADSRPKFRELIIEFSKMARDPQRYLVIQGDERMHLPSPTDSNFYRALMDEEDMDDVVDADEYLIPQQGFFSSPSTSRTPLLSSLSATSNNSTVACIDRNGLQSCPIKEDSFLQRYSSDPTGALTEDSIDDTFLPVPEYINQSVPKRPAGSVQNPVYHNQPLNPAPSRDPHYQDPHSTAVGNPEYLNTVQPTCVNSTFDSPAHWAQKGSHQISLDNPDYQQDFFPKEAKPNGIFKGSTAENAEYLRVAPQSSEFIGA
Procedure, shortened: as §1

EGFR L858R = molecular target: T5, EGFR L858R (Homo sapiens, UniProt P00533, L858R); test: Inhibition of EGFR L858R biochemical enzymatic activity (HTRF); details: 1 mM ATP; for pIC50: 1 h at room temperature, read-out: IC50 @L858R
T5 construct: purchased Carna Bio
Procedure, shortened: as §1

EGFR (C797S L858R) = molecular target: T6, EGFR (C797S L858R) (Homo sapiens, UniProt P00533, C797S/L858R); test: Inhibition of EGFR (C797S L858R) biochemical enzymatic activity (HTRF); details: 1 mM ATP; for pIC50: EGFR (C797S L858R), 1 h at room temperature, read-out: IC50 @L858-C797S
T6 construct: purchased signalchem
Procedure, shortened: as §1

EGFR L858R/T790M = molecular target: T7, EGFR L858R/T790M (Homo sapiens, UniProt P00533, L858R/T790M); test: Inhibition of EGFR L858R/T790M biochemical enzymatic activity (HTRF); details: 1 mM ATP; for pIC50: EGFR L858R/T790M, 1 h at room temperature, read-out: IC50 @L858R-T790M
T7 construct: purchased Carna Bio
T7 sequence (P00533 25-1210 T790M/L858R): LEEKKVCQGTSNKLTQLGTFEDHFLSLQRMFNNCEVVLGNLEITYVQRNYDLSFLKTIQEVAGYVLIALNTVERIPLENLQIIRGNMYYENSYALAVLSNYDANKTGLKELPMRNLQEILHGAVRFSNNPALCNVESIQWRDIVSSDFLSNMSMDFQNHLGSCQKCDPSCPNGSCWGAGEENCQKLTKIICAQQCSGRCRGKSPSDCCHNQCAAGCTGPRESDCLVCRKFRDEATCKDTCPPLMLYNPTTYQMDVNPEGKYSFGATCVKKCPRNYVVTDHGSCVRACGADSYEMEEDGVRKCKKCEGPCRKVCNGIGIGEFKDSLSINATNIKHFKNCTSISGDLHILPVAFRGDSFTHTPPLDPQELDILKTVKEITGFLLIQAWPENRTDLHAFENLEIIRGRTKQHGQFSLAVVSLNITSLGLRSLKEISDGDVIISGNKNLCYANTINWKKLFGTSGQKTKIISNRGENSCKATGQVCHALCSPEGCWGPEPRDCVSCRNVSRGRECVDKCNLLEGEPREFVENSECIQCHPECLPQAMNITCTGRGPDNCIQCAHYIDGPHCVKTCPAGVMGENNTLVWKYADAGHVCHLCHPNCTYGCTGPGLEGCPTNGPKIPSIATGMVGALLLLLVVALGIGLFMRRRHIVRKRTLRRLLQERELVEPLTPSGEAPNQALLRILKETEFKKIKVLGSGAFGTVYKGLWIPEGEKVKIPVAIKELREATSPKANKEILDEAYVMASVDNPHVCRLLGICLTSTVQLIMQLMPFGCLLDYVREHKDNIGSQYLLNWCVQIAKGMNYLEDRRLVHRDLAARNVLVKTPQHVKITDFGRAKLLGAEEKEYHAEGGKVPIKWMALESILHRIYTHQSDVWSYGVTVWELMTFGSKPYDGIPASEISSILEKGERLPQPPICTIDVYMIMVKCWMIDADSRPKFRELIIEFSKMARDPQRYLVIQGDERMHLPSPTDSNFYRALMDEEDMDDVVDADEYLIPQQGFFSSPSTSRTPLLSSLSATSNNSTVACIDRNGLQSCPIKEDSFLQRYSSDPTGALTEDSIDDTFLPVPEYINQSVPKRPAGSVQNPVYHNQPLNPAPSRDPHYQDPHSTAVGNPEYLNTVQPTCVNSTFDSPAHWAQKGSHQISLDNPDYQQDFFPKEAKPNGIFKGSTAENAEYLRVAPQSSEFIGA
Procedure, shortened: as §1

EGFR (d746-750 C797S) = molecular target: T8, EGFR (d746-750 C797S) (Homo sapiens, UniProt P00533, C797S/DEL746-750); test: Inhibition of EGFR (d746-750 C797S) biochemical enzymatic activity (HTRF); details: 1 mM ATP; for pIC50: EGFR (d746-750 C797S), 1 h at room temperature, read-out: IC50 @Del19-C797S
T8 construct: purchased signalchem
Procedure, shortened: as §1

EGFR wild type = molecular target: T9, EGFR wild type (Homo sapiens, UniProt P00533); test: Inhibition of EGFR wild type biochemical enzymatic activity (HTRF); details: 1 mM ATP; for pIC50: EGFR wild type, 1 h at room temperature, read-out: IC50 @WT
T9 construct: purchased Carna Bio
T9 sequence (P00533 25-1210): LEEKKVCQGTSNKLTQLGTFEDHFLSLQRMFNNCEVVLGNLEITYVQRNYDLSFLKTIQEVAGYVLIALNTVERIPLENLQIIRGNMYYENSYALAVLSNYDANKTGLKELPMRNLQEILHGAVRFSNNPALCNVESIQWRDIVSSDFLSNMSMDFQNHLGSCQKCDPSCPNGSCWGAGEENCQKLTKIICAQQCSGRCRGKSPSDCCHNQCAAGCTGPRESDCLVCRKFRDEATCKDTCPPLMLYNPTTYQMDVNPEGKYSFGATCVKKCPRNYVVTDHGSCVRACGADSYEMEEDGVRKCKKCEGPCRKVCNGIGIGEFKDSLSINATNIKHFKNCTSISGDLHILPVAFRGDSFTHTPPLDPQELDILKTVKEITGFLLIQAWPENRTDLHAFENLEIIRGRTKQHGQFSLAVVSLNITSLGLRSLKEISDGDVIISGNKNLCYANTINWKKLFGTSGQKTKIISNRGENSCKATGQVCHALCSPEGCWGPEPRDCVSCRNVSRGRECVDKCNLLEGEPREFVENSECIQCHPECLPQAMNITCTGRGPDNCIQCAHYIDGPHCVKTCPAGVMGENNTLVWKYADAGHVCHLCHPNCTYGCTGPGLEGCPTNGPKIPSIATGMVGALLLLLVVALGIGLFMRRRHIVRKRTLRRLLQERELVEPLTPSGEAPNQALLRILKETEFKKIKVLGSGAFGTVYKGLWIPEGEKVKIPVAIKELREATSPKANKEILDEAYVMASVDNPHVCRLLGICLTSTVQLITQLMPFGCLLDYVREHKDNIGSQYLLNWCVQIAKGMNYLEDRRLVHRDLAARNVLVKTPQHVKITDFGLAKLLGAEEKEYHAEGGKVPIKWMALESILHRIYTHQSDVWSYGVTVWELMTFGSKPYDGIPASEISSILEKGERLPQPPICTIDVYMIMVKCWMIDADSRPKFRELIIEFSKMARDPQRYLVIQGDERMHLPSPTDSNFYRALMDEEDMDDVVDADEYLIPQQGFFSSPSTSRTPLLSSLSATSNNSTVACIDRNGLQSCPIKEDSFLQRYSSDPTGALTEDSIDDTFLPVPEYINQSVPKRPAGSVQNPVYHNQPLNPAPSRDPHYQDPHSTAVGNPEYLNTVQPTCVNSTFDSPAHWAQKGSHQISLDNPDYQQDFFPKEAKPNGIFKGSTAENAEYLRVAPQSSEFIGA
Procedure, shortened: as §1

A-431 = test: Cell proliferation assay, A-431 cells (GI50, Table 6); type: cell-based
[3] = BaF3 cells, EGFR DEL19 - C797S, read-out: GI50 DEL19 - C797S/BaF3
[4] = BaF3 cells, EGFR DEL19 - T790-C797S, read-out: GI50 DEL19 - T790-C797S/BaF3
[5] = BaF3 cells, EGFR L858R - C797S, read-out: GI50 L858R - C797S/BaF3
[6] = BaF3 cells, EGFR L858R - T790-C797S, read-out: GI50 L858R - T790-C797S/BaF3
[7] = BaF3 cells, EGFR L858R - T790M, read-out: GI50 L858R - T790M/BaF3
[8] = BaF3 cells, EGFR L858R, read-out: GI50 L858R/BaF3
[9] = EGFR DEL19 - T790M, read-out: GI50 DEL19 - T790M
[10] = EGFR Exon19Del, 1 mM ATP, 1 h at room temperature
[11] = Homo sapiens, A-431, A-431 cells

| pIC50 [1] | pIC50 (EGFR Exon19Del/T790M) | GI50 (PC-9) | GI50 [2, 3] | GI50 [2, 4] | GI50 [2, 5] | GI50 [2, 6] | GI50 [2, 7] | GI50 [2, 8] | GI50 [2, 9] | pIC50 (EGFR[T790M/C797S/L858R]) | pIC50 (EGFR Exon19Del; [10]) | pIC50 (EGFR L858R) | pIC50 (EGFR (C797S L858R)) | pIC50 (EGFR L858R/T790M) | pIC50 (EGFR (d746-750 C797S)) | pIC50 (EGFR wild type) | GI50 (A-431; A-431 cells) | GI50 (A-431; [11]) | Structure (SMILES) | other results |
| --- | --- | --- | --- | --- | --- | --- | --- | --- | --- | --- | --- | --- | --- | --- | --- | --- | --- | --- | --- | --- |
| 8.60 | 8.41 | 3 nM | 2 nM | 2 nM | 2 nM | 2 nM | 2 nM | 2 nM | 6 nM | 8.80 | 8.31 | 7.89 | 8.41 | 8.51 | 8.70 | 6.92 | 795 nM | – | Cc1cc2cc(n1)-c1cnn(C)c1OCCN1CC3CCC(C3)(C1)n1c(nc3ccc(N4CCC5(CC4)CCN5C)cc31)NC2=O (single isomer, unassigned) [Example B54B] | – |
| 5.56 | < 5.30 | 1930 nM | 549 nM | 638 nM | 2560 nM | 350 nM | 939 nM | 4180 nM | 1100 nM | < 5.30 | < 5.30 | < 5.30 | < 5.30 | < 5.30 | < 5.30 | < 5.30 | 7540 nM | – | Cc1cc2cc(n1)-c1cnn(C)c1OCCN1CC3CCC(C3)(C1)n1c(nc3ccc(N4CCN(C5CC5)CC4)cc31)NC2=O (single isomer, unassigned) [Example B55A] | – |
| 8.80 | 8.49 | 10 nM | 2 nM | 2 nM | 11 nM | 2 nM | 2 nM | 17 nM | 7 nM | 8.82 | 8.37 | 7.19 | 8.22 | 8.64 | 8.77 | 5.74 | 2080 nM | – | Cc1cc2cc(n1)-c1cnn(C)c1OCCN1CC3CCC(C3)(C1)n1c(nc3ccc(N4CCN(C5CC5)CC4)cc31)NC2=O (single isomer, unassigned) [Example B55B] | – |
| 8.64 | 8.39 | 10 nM | 2 nM | 2 nM | 5 nM | 2 nM | 2 nM | 12 nM | 7 nM | 8.80 | 8.36 | 7.59 | 8.29 | 8.52 | 8.77 | 6.41 | – | 426 nM | CCN1CCN(c2ccc3nc4n(c3c2)C23CCC(CN(CCOc5c(cnn5C)-c5cc(cc(C)n5)C(=O)N4)C2)C3)CC1 (single isomer, unassigned) [Example B56B] | – |
| 8.59 | 8.37 | 8 nM | 2 nM | 2 nM | 8 nM | 2 nM | 2 nM | 9 nM | 2 nM | 8.74 | 8.21 | 7.51 | 8.22 | 8.43 | 8.68 | 6.27 | – | 257 nM | Cc1cc2cc(n1)-c1cnn(C)c1OCCN1CC3CCC(C3)(C1)n1c(nc3ccc(N4CCN(C(C)C)CC4)cc31)NC2=O (single isomer, unassigned) [Example B57B] | – |
| < 5.30 | < 5.30 | 737 nM | 163 nM | 229 nM | 828 nM | 90 nM | 307 nM | 1560 nM | 378 nM | < 5.30 | < 5.30 | < 5.30 | < 5.30 | < 5.30 | 5.41 | < 5.30 | 8610 nM | – | Cc1cc2cc(n1)-c1cnn(C)c1OCCN1CC3CCC(C3)(C1)n1c(nc3ccc(N4CCN(C5COC5)CC4)cc31)NC2=O (single isomer, unassigned) [Example B58A] | – |
| 8.49 | 8.26 | 9 nM | 2 nM | 2 nM | 9 nM | 2 nM | 2 nM | 13 nM | 2 nM | 8.51 | 7.92 | 6.87 | 7.48 | 8.23 | 8.38 | 5.56 | 532 nM | – | Cc1cc2cc(n1)-c1cnn(C)c1OCCN1CC3CCC(C3)(C1)n1c(nc3ccc(N4CCN(C5COC5)CC4)cc31)NC2=O (single isomer, unassigned) [Example B58B] | – |
| – | – | – | – | – | – | – | – | – | – | – | – | – | – | – | – | – | – | 489 nM | C[C@@H]1CCCOc2ccccc2-c2cc(cn(C)c2=O)C(=O)Nc2nc3ccc(N4CCN(C)CC4)cc3n2C1 [Example A109, (12R)-12,27-dimethyl-17-(4-methylpiperazin-1-yl)-8-oxa-14,21,23,27-tetraazapentacyclo[23.3.1.0^{2,7}.0^{14,22}.0^{15,20}]nonacosa-1(29),2(7),3,5,15,17,19,21,25-nonaene-24,28-dione] | IC50 ([1]; EGFR T790M-C797S-Del19, 1 mM ATP, 1 h, room temperature, read-out: IC50 (nM) @T790M - C797S - Del19): 7.6 nM; IC50 (EGFR Exon19Del/T790M; EGFR Del19-T790M, 1 h, room temperature, read-out: IC50 (nM) @Del19-T790M): 7.9 nM; GI50 (PC-9; Homo sapiens, PC-9, 72 h): 15 nM; GI50 ([2]; Mus musculus, BaF3, 72 h, BaF3 cells, EGFR DEL19 - C797S, read-out: GI50 DEL19 - C797S/BaF3): 1.7 nM; GI50 ([2]; Mus musculus, BaF3, 72 h, BaF3 cells, EGFR DEL19 - T790-C797S, read-out: GI50 DEL19 - T790-C797S/BaF3): 15 nM; GI50 ([2]; Mus musculus, BaF3, 72 h, BaF3 cells, EGFR L858R - C797S, read-out: GI50 L858R - C797S/BaF3): 23 nM; GI50 ([2]; Mus musculus, BaF3, 72 h, BaF3 cells, EGFR L858R - T790-C797S, read-out: GI50 L858R - T790-C797S/BaF3): 27 nM; GI50 ([2]; Mus musculus, BaF3, 72 h, BaF3 cells, EGFR L858R - T790M, read-out: GI50 L858R - T790M/BaF3): 34 nM; GI50 ([2]; Mus musculus, BaF3, 72 h, BaF3 cells, EGFR L858R, read-out: GI50 L858R/BaF3): 21 nM; GI50 ([2]; Mus musculus, BaF3, 72 h, EGFR DEL19 - T790M, read-out: GI50 DEL19 - T790M): 16 nM; IC50 (EGFR[T790M/C797S/L858R]; EGFR T790M-C797S-L858R, 1 h, room temperature, read-out: IC50 (nM) @T790M- C797S - L858R): 10 nM; pIC50 (EGFR Exon19Del; EGFR Del19, 1 mM ATP, 1 h, room temperature): 8.33; IC50 (EGFR L858R; 1 h, room temperature, read-out: IC50 (nM) @L858R): 16 nM; IC50 (EGFR (C797S L858R); EGFR L858-C797S, 1 h, room temperature, read-out: IC50 (nM) @L858-C797S): 9.8 nM; IC50 (EGFR L858R/T790M; EGFR L858R-T790M, 1 h, room temperature, read-out: IC50 (nM) @L858R-T790M): 11 nM; IC50 (EGFR (d746-750 C797S); EGFR Del19-C797S, 1 h, room temperature, read-out: IC50 (nM) @Del19-C797S): 3.1 nM; IC50 (EGFR wild type; EGFR WT, 1 h, room temperature, read-out: IC50 (nM) @WT): 219 nM |
